Measurements taken from patent US4061862A, “Derivatives of 7-(cyclized)phenylglycyl-3-triazolo-thio methyl cephalosporin” (priority 1976, dated 1977).
In brackets after ≈: the same amount, converted by molar mass. Read-outs that look alike come from different tables or passages of the source.

Experiments:
Bio-assay (mcg./mg.) = assay: Bio-assay (mcg./mg.)
Protocol: 7-[D-α-amino-α-(p-hydroxyphenyl)acetamido]-3-(1,2,3-triazol-5-ylthiomethyl)-3-cephem-4-carboxylic acid methanol solvate (15 g.) was slurried in 60 ml. of water. The pH was raised to 6.5 by addition of 4N NaOH and the mixture was passed through a 200 mesh screen. The reaction mixture was slurried at room temperature for 2 hours, the pH being maintained at 6.5 during this period. The crystals were removed by filtration, washed with 20 ml. of water and air dried at 37° C. for 24 hours to give 11.5 g. of title crystalline product. Bio assay = 924 mcg./mg. (average % H2 O, K.F. = 5.26).
7-[D-α-amino-α-(p-hydroxyphenyl)acetamido]-3-(1,2,3-triazol-5-ylthiomethyl)-3-cephem-4-carboxylic acid methanol solvate (200 mesh; 10.0 g.) substantially free of propylene glycol is slurried in 30-40 ml. of deionized water at ambient room temperature (20°-25° C.) to give a pH 3-4 aqueous suspension. NaOH (40%) is slowly added with rapid stirring to bring the pH to 6.3-6.7. The mixture is slurried at pH 6.3-6.7 for 2 hours. The crystals are removed by filtration, washed with water and air dried at room temperature for 24 hours to give a 75-80% weight yield of 950-1000 mcg./mg. crystals of 7-[D-α-amino-α-(p-hydroxyphenyl)acetamido]-3-(1,2,3-triazol-5-ylthiomethyl)-3-cephem-4-carboxylic acid dihydrate. […] H2 O, K.F. = 6.56.

S. pneumoniae A9585 = assay: Antibiotic spectrum in nutrient broth, MIC; format: cell-based; details: Streptococcus pneumoniae, 10^-3 dilution of overnight culture, 45% AAB + 5% serum + 50% broth, BL-S1052 adjusted for 97.5% content of BL-S640
Source text: (§1) Antibiotic Spectrum in Nutrient Broth
(§2) *45% AAB + 5% serum + 50% broth listed above.
(§3) **Dilution of overnight broth culture.
(§4) ^(1) Adjusted for 97.5% content of BL-S640. In other words, the
(§5) numerical values are lowered, i.e. improved. This adjustment was also mad
(§6) in the tests reported below or in the alternative, a larger weight was
(§7) used to provide equivalent dosage.

Str. pyogenes A9604 = assay: Antibiotic spectrum in nutrient broth, MIC; format: cell-based; details: Streptococcus pyogenes, 10^-3 dilution of overnight culture, 45% AAB + 5% serum + 50% broth, BL-S1052 adjusted for 97.5% content of BL-S640
Source text: as §1, §2, §3, §4, §5, §6, §7

E. coli A9675 = assay: Antibiotic spectrum in nutrient broth, MIC; format: cell-based; details: Escherichia coli, 10^-4 dilution, BL-S1052 adjusted for 97.5% content of BL-S640
Source text: as §1, §3, §4, §5, §6, §7

E. coli Juhl A15119 = assay: Antibiotic spectrum in nutrient broth, MIC; format: cell-based; details: Escherichia coli, JUHLA15119; 10^-4 dilution; BL-S1052 adjusted for 97.5% content of BL-S640
Source text: as §1, §3, §4, §5, §6, §7

Ent. cloacae A9656 = assay: Antibiotic spectrum in nutrient broth, MIC; format: cell-based; details: Enterobacter cloacae, 10^-4 dilution, BL-S1052 adjusted for 97.5% content of BL-S640
Source text: as §1, §3, §4, §5, §6, §7

Ent. cloacae A9657 = assay: Antibiotic spectrum in nutrient broth, MIC; format: cell-based; details: Enterobacter cloacae, 10^-4 dilution, BL-S1052 adjusted for 97.5% content of BL-S640
Source text: as §1, §3, §4, §5, §6, §7

K. pneumoniae A15130 = assay: Antibiotic spectrum in nutrient broth, MIC; format: cell-based; details: Klebsiella pneumoniae, 10^-4 dilution, BL-S1052 adjusted for 97.5% content of BL-S640
Source text: as §1, §3, §4, §5, §6, §7

K. pneumoniae A9977 = assay: Antibiotic spectrum in nutrient broth, MIC; format: cell-based; details: Klebsiella pneumoniae, 10^-4 dilution, BL-S1052 adjusted for 97.5% content of BL-S640
Source text: as §1, §3, §4, §5, §6, §7

Pr. mirabilis A9900 = assay: Antibiotic spectrum in nutrient broth, MIC; format: cell-based; details: Proteus mirabilis, 10^-4 dilution, BL-S1052 adjusted for 97.5% content of BL-S640
Source text: as §1, §3, §4, §5, §6, §7

Ps. Aeruginosa A9843A = assay: Antibiotic spectrum in nutrient broth, MIC; format: cell-based; details: Pseudomonas aeruginosa
Source text: as §1, §3, §4, §5, §6, §7

[1] = tested on: S. aureus Meth-Res A15097; assay: Antibiotic spectrum in nutrient broth, MIC; format: cell-based; details: Staphylococcus aureus; 10^-3 dilution; BL-S1052 adjusted for 97.5% content of BL-S640
Source text: as §1, §3, §4, §5, §6, §7

S. aureus Smith A9537 = assay: Antibiotic spectrum in nutrient broth, MIC; format: cell-based; details: Staphylococcus aureus, BL-S1052 adjusted for 97.5% content of BL-S640
Source text: as §1, §3, §4, §5, §6, §7

Sal. enteritidis A9531 = assay: Antibiotic spectrum in nutrient broth, MIC; format: cell-based; details: Salmonella enterica, 10^-4 dilution, BL-S1052 adjusted for 97.5% content of BL-S640
Source text: as §1, §3, §4, §5, §6, §7

Ser. marcescens A20019 = assay: Antibiotic spectrum in nutrient broth, MIC; format: cell-based; details: Serratia marcescens, 10^-4 dilution, BL-S1052 adjusted for 97.5% content of BL-S640
Source text: as §1, §3, §4, §5, §6, §7

Ent. cloacae A9659 = assay: Antibiotic spectrum in nutrient broth, MIC; format: cell-based; details: Enterobacter cloacae, 10^-4 dilution, BL-S1052 adjusted for 97.5% content of BL-S640
Source text: as §1, §3
(§8) This adjustment was also mad
as §6, §7

Pr. morganii A15153 = assay: Antibiotic spectrum in nutrient broth, MIC; format: cell-based; details: Morganella morganii, 10^-4 dilution, BL-S1052 adjusted for 97.5% content of BL-S640
Source text: as §1, §3, §8, §6, §7

S. aureus BX1633 = assay: Antibiotic spectrum in nutrient broth, MIC; format: cell-based; details: Staphylococcus aureus, BL-S1052 adjusted for 97.5% content of BL-S640, read-out: MIC
Source text: as §1, §3, §8, §6, §7

[2] = Mouse blood levels after IM administration; format: in vivo; details: IM 10 mg./kg.
Protocol: Mouse Blood Levels after IM
Administration of 10 mg./kg. Body Weight
Blood Levels (mcg./ml.)
(§9) The compounds were prepared in 0.01% phosphate buffer. BL-S640 was used a
(§10) standard for all compounds.

[3] = Mouse blood levels after PO administration; format: in vivo; details: PO 100 mg./kg.
Protocol: ______________________________________
Mouse Blood Levels after PO
Administration of 100 mg./kg. Body Weight
The compounds were prepared in Tween-CMC. BL-S640 was used as standard fo

[4] = Urinary recovery after IM administration to rats; format: in vivo; details: rat, urine, read-out: Urinary recovery, percentage of administered dose recovered; for dose excreted at 6 h: 0-6 hr
Protocol: Urinary Recovery after IM
Administration of 50 and 10 mg./kg. to Rats
as §9, §10

[5] = Paper chromatograms of rat urine for antibiotically active metabolites after IM administration; format: in vivo; details: rat urine 0-2 and 2-4 hours, paper chromatography system No. 9
Protocol: Paper chromatograms were run on rat urine collected between 0 and 2 and between 2 and 4 hours, following IM administration of BL-S1052 and BL-S640, for the detection of antibiotically active metabolites using descending chromatography with system No. 9 (butyl acetate:n-butanol:glacial acetic acid:H2 O = 80:15:40:24).

Work on `N[C@@H](C(=O)NC1C(=O)N2C(C(=O)O)=C(CSc3c[nH]nn3)CS[C@H]12)c1ccc(O)cc1` (stereo partly drawn) [7-[D-α-amino-α-(p-hydroxyphenyl)acetamido]-3-(1,2,3-triazol-5-ylthiomethyl)-3-cephem-4-carboxylic acid sesquihydrate] yielded a Bio-assay (Bio-assay (mcg./mg.); sesquihydrate) of 924 µg/mg.
In the case of `N[C@@H](C(=O)N[C@@H]1C(=O)N2C(C(=O)O)=C(CSc3c[nH]nn3)CS[C@H]12)c1ccc(O)cc1` [BL-S640, 7-[D-α-amino-α-(p-hydroxyphenyl)acetamido]-3-(1,2,3-triazol-5-ylthiomethyl)-3-cephem-4-carboxylic acid], the MIC (S. pneumoniae A9585) is reported as 0.06 µg/mL, the MIC (Str. pyogenes A9604) is reported as 0.03 µg/mL and the MIC (E. coli A9675) is reported as 2 µg/mL (≈ 4.32 µM). For the same compound, the MIC (E. coli Juhl A15119) was 0.5 µg/mL (≈ 1.08 µM), the MIC (Ent. cloacae A9656) was > 125 µg/mL and the MIC (Ent. cloacae A9657) was 0.5 µg/mL (≈ 1.08 µM). For the same compound, the MIC (K. pneumoniae A15130) was 1 µg/mL (≈ 2.16 µM), the MIC (K. pneumoniae A9977) was 0.5 µg/mL (≈ 1.08 µM) and the MIC (Pr. mirabilis A9900) was 0.5 µg/mL (≈ 1.08 µM). For the same compound, the MIC (Ps. Aeruginosa A9843A) was > 125 µg/mL, the MIC [1] was 8 µg/mL (≈ 17.3 µM) and the MIC (S. aureus Smith A9537; SMITHA9537, 10^-4 dilution, nutrient broth) was 0.13 µg/mL (≈ 0.281 µM). For the same compound, the MIC (S. aureus Smith A9537; SMITHA9537, +50% serum, 10^-4 dilution) was 2 µg/mL (≈ 4.32 µM), the MIC (Sal. enteritidis A9531) was 0.25 µg/mL (≈ 0.541 µM) and the MIC (Ser. marcescens A20019) was > 125 µg/mL. It also gave an MIC (Ent. cloacae A9659) of 32 µg/mL (≈ 69.2 µM), an MIC (Pr. morganii A15153) of 32 µg/mL (≈ 69.2 µM) and an MIC (S. aureus BX1633; BX1633, 10^-2 dilution, A9606) of 4 µg/mL (≈ 8.65 µM). It also gave an MIC (S. aureus BX1633; BX1633, 10^-3 dilution, A9696) of 0.25 µg/mL (≈ 0.541 µM), a concentration at 0.25 h ([2]; 0.25 hr) of 15700 ng/mL and a concentration at 0.5 h ([2]; 0.5 hr) of 13200 ng/mL. The concentration at 1 h ([2]; 1 hr) was 9500 ng/mL, the concentration at 1.5 h ([2]; 1.5 hr) was 6800 ng/mL and the concentration at 0.5 h ([3]; 0.5 hr) was 53400 ng/mL. It also gave a concentration at 1 h ([3]; 1 hr) of 45400 ng/mL, a concentration at 2 h ([3]; 2 hr) of 27200 ng/mL and a concentration at 3.5 h ([3]; 3.5 hr) of 10700 ng/mL. For the same compound, the dose excreted at 6 h ([4]; 10 mg/kg, IM 10 mg./kg.) was 24.3%, the dose excreted at 24 h ([4]; 10 mg/kg, IM 10 mg./kg., 0-24 hr) was 25.7% and the dose excreted at 24 h ([4]; 10 mg/kg, IM 10 mg./kg., 6-24 hr) was 1.4%. The dose excreted at 6 h ([4]; 50 mg/kg, IM 50 mg./kg.) was 44.5%, the dose excreted at 24 h ([4]; 50 mg/kg, IM 50 mg./kg., 0-24 hr) was 47.2% and the dose excreted at 24 h ([4]; 50 mg/kg, IM 50 mg./kg., 6-24 hr) was 2.7%. The “Antibiotically active spots in urine” value [5] was “Two spots identically located”.
In the case of `NC(C(=O)NC1C(=O)N2C(C(=O)O)=C(CSc3c[nH]nn3)CSC12)c1ccc(O)cc1` [7-[D-α-amino-α-(p-hydroxyphenyl)acetamido]-3-(1,2,3-triazol-5-ylthiomethyl)-3-cephem-4-carboxylic acid methanol solvate], the Bio-assay (Bio-assay (mcg./mg.)) is reported as 850 to 900 µg/mg.
